Patent publication US20250145635A1, “COMPOUND CONTAINING BIS(AZANYLYLIDENE) SULFONYL STRUCTURE AND USE THEREOF IN MEDICINE” (SCINNOHUB PHARMACEUTICAL CO., LTD., priority 2021, published 2025)

Molecular target: recombinant human PKR enzyme (Homo sapiens (Human), UniProt P30613)
Test: Pyruvate kinase (PKR) activity experiment
Format: biochemical
Conditions: activation of recombinant human PKR enzyme
Method: • 1). A recombinant human PKR enzyme solution was formulated at a concentration of 60 ng/well (a 20 μL reaction system), and 5 μL of the solution was added into each well of a black transparent bottom 384-well plate. • 2). Compound solutions were formulated at different concentrations, with the final concentrations of 1000/300/100 nM (containing 1% DMSO). Each 5 μL of the compound solution was added into the plate in item 3.1 and mixed well. The plate was incubated at room temperature for 10 min. • 3). A reaction system was formulated according to the instructions of a kit (as shown in the table below), and 10 μL of the reaction system was added into each well of the 384-well plate, and mixed uniformly with the solution in item 3.2.
• 4). The 384-well plate was placed on a microplate reader to detect the fluorescence value at 540/590 nm, where the value was read every 2 minutes and the detection was conducted continuously for 1 hour. • 5). The Slope value within the detection time was calculated, and the 0.1% DMSO well was used as a control well to calculate a compound activation rate.
[formula] • 6). Fitting dose-effect curve
With the log value of the compound concentration as the X axis and the percentage activation rate as the Y axis, a dose-effect curve was fitted with the log(agonist) vs. response-variable slope of the analysis software GraphPad Prism 5, and the AC50 value of the activity of each compound against PKR was obtained.

recombinant human PKR enzyme, sequence (P30613 whole entry): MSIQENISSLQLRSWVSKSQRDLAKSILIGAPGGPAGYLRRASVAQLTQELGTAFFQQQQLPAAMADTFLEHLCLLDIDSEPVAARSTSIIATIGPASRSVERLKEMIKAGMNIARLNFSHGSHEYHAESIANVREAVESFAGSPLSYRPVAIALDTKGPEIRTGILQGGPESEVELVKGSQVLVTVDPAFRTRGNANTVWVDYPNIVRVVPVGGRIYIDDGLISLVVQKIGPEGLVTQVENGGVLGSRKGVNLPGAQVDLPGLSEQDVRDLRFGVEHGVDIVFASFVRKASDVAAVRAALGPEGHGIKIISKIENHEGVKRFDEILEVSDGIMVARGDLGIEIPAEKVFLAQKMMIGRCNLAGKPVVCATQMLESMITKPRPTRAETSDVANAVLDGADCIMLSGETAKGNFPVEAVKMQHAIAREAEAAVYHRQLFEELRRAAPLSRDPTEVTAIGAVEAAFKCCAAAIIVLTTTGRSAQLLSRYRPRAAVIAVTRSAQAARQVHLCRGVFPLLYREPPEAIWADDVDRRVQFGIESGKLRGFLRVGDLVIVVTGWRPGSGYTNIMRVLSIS

| SMILES | AC50 |
| --- | --- |
| Cn1cnc2ccc(S(=O)(=O)N3CC(=C4CN(C(=O)[C@H](CO)c5ccccc5)C4)C3)cc21 [Compound 63, (S)-3-hydroxy-1-(1′-((1-methyl-1H-benzimidazol-6-yl)sulfonyl)-1′,4′-dihydro-2H,2′H-[3,3′-diazetidinylidene]-1(4H)-yl)-2-phenylpropan-1-one] | 101 to 300 nM |
| O=C([C@@H](CO)c1ccc(F)cc1F)N1CC(=C2CN(S(=O)(=O)c3ccccn3)C2)C1 [Compound 84, (R)-2-(2,4-difluorophenyl)-3-hydroxy-1-(1′-(pyridin-2-ylsulfonyl)-1′,4′-dihydro-2H,2′H-[3,3′-diazetidinylidene]-1(4H)-yl)propan-1-one] | 300 to 1000 nM |
| CNCC(C(=O)N1CC(=C2CN(S(=O)(=O)c3ccc4ncsc4c3)C2)C1)c1ccc(F)c(Cl)c1 (stereo not drawn) [Compound 38, 1-(1′-(benzo[d]thiazol-6-ylsulfonyl)-1′,4′-dihydro-2H,2′H-[3,3′-diazetidinylidene]-1(4H)-yl)-2-(3-chloro-4-fluorophenyl)-3-(methylamino)propan-1-one] | 300 to 1000 nM |
| O=C([C@H](CO)c1ccccc1)N1CC(=C2CN(S(=O)(=O)c3ccc(-c4ncco4)c(F)c3)C2)C1 [Compound 27, (S)-1-(1′-((3-fluoro-4-(oxazol-2-yl)phenyl)sulfonyl)-1′,4′-dihydro-2H,2′H-[3,3′-diazetidinylidene]-1(4H)-yl)-3-hydroxy-2-phenylpropan-1-one] | 300 to 1000 nM |
| O=C(C(CO)c1cccnc1)N1CC(=C2CN(S(=O)(=O)c3ccc4ncsc4c3)C2)C1 (stereo not drawn) [Compound 48, 1-(1′-(benzo[d]thiazol-6-ylsulfonyl)-1′,4′-dihydro-2H,2′H-[3,3′-diazetidinylidene]-1(4H)-yl)-3-hydroxy-2-(pyridin-3-yl)propan-1-one] | 101 to 300 nM |
| CN(C)CC(C(=O)N1CC(=C2CN(S(=O)(=O)c3ccc4ncsc4c3)C2)C1)c1ccc(F)c(Cl)c1 (stereo not drawn) [Compound 42, 1-(1′-(benzo[d]thiazol-6-ylsulfonyl)-1′,4′-dihydro-2H,2′H-[3,3′-diazetidinylidene]-1(4H)-yl)-2-(3-chloro-4-fluorophenyl)-3-(dimethylamino)propan-1-one] | 300 to 1000 nM |
| O=C([C@H](CO)c1ccccc1)N1CC(=C2CN(S(=O)(=O)c3ccc(OC4CC4)cn3)C2)C1 [Compound 82, (S)-1-(1′-((5-cyclopropoxypyridin-2-yl)sulfonyl)-1′,4′-dihydro-2H,2′H-[3,3′-diazetidinylidene]-1(4H)-yl)-3-hydroxy-2-phenylpropan-1-one] | < 100 nM |
| CNCC(C(=O)N1CC(=C2CN(S(=O)(=O)c3ccc4c(c3)OCCO4)C2)C1)c1ccc(F)c(Cl)c1OC (stereo not drawn) [Compound 28] | 300 to 1000 nM |
| Cc1ccc(C(CO)C(=O)N2CC(=C3CN(S(=O)(=O)c4ccc5ncsc5c4)C3)C2)cc1 (stereo not drawn) [Compound 45, 1-(1′-(benzo[d]thiazol-6-ylsulfonyl)-1′,4′-dihydro-2H,2′H-[3,3′-diazetidinylidene]-1(4H)-yl)-3-hydroxy-2-(p-tolyl)propan-1-one] | < 100 nM |
| O=C([C@@H](CO)c1ccc(F)c(Cl)c1)N1CC(=C2CN(S(=O)(=O)c3ccccn3)C2)C1 [Compound 76, (R)-2-(3-chloro-4-fluorophenyl)-3-hydroxy-1-(1′-(pyridin-2-ylsulfonyl)-1′,4′-dihydro-2H,2′H-[3,3′-diazetidinylidene]-1(4H)-yl)propan-1-one] | 300 to 1000 nM |
| O=C(C(CO)c1cccc(F)c1)N1CC(=C2CN(S(=O)(=O)c3ccc4ncsc4c3)C2)C1 (stereo not drawn) [Compound 46, 1-(1′-(benzo[d]thiazol-6-ylsulfonyl)-1′,4′-dihydro-2H,2′H-[3,3′-diazetidinylidene]-1(4H)-yl)-2-(3-fluorophenyl)-3-hydroxypropan-1-one] | < 100 nM |
| O=C(C(CO)C1CCCCC1)N1CC(=C2CN(S(=O)(=O)c3ccccn3)C2)C1 (stereo not drawn) [Compound 90, 2-cyclohexyl-3-hydroxy-1-(1′-(pyridin-2-ylsulfonyl)-1′,4′-dihydro-2H,2′H-[3,3′-diazetidinylidene]-1(4H)-yl)propan-1-one] | 101 to 300 nM |
| N#Cc1ccc(C(CO)C(=O)N2CC(=C3CN(S(=O)(=O)c4ccccn4)C3)C2)cc1 (stereo not drawn) [Compound 85, 4-(3-hydroxy-1-oxo-1-(1′-(pyridin-2-ylsulfonyl)-1′,4′-dihydro-2H,2′H-[3,3′-diazetidinylidene]-1(4H)-yl)propan-2-yl)benzonitrile] | 300 to 1000 nM |
| O=C([C@H](CO)c1ccccc1)N1CC(=C2CN(S(=O)(=O)c3ccc4c(n3)OCCO4)C2)C1 [Compound 49, (S)-1-(1′-((2,3-dihydro-[1,4]dioxino[2,3-b]pyridin-6-yl)sulfonyl)-1′,4′-dihydro-2H,2′H-[3,3′-diazetidinylidene]-1(4H)-yl)-3-hydroxy-2-phenylpropan-1-one] | < 100 nM |

Other lines, results leading:

| AC50 | SMILES |
| --- | --- |
| 101 to 300 nM | O=C([C@H](CO)c1ccccc1)N1CC(=C2CN(S(=O)(=O)c3cc(F)c4c(c3)OCCO4)C2)C1 [Compound 20, (S)-1-(1′-((8-fluoro-2,3-dihydrobenzo[b][1,4]dioxin-6-yl)sulfonyl)-1′,4′-dihydro-2H,2′H-[3,3′-diazetidinylidene]-1(4H)-yl)-3-hydroxy-2-phenylpropan-1-one] |
| < 100 nM | O=C([C@H](CO)c1ccc(F)cc1)N1CC(=C2CN(S(=O)(=O)c3ccc4c(c3)OCCO4)C2)C1 [Compound 30, (S)-1-(1′-((2,3-dihydrobenzo[b][1,4]dioxin-6-yl)sulfonyl)-1′,4′-dihydro-2H,2′H—[3,3′-diazetidinylidene]-1(4H)-yl)-2-(4-fluorophenyl)-3-hydroxypropan-1-one] |
| 300 to 1000 nM | CC(C)(O)C(C(=O)N1CC(=C2CN(S(=O)(=O)c3ccc(OC(F)F)cc3)C2)C1)c1ccccc1 (stereo not drawn) [Compound 17, 1-(1′-((4-(difluoromethoxy)phenyl)sulfonyl)-1′,4′-dihydro-2H,2′H-[3,3′-diazetidinylidene]-1(4H)-yl)-3-hydroxy-3-methyl-2-phenylbutan-1-one] |
| 101 to 300 nM | O=C1COc2ccc(S(=O)(=O)N3CC(=C4CN(C(=O)[C@H](CO)c5ccccc5)C4)C3)cc2N1 [Compound 40, (S)-6-((1′-(3-hydroxy-2-phenylpropionyl)-1′,4′-dihydro-2H,2′H-[3,3′-diazetidinylidene]-1(4H)-yl)sulfonyl)-2H-benzo[b][1,4]oxazine-3(4H)-one] |
| 300 to 1000 nM | O=C([C@@H](CO)c1ccc(F)cc1)N1CC(=C2CN(S(=O)(=O)c3ccc4ncsc4c3)C2)C1 [Compound 51, (R)-1-(1′-(benzo[d]thiazol-6-ylsulfonyl)-1′,4′-dihydro-2H,2′H-[3,3′-diazetidinylidene]-1(4H)-yl)-2-(4-fluorophenyl)-3-hydroxypropan-1-one] |
| 101 to 300 nM | O=C([C@H](CO)c1ccccc1)N1CC(=C2CN(S(=O)(=O)c3ccc(OC(F)F)c(F)c3)C2)C1 [Compound 11] |
| 300 to 1000 nM | CNCC(C(=O)N1CC(=C2CN(S(=O)(=O)c3ccc4c(c3)OCCO4)C2)C1)c1cccc(OC)c1 (stereo not drawn) [Compound 15, 1-(1′-((2,3-dihydrobenzo[b][1,4]dioxin-6-yl)sulfonyl)-1′,4′-dihydro-2H,2′H-[3,3′-diazetidinylidene]-1(4H)-yl)-2-(3-methoxyphenyl)-3-(methylamino)propan-1-one] |
| < 100 nM | O=C([C@H](CO)c1ccccc1)N1CC(=C2CN(S(=O)(=O)c3ccc4c(c3)NCCO4)C2)C1 [Compound 12, (S)-1-(1′-((3,4-dihydro-2H-benzo[b][1,4]oxazin-6-yl)sulfonyl)-1′,4′-dihydro-2H,2′H-[3,3′-diazetidinylidene]-1(4H)-yl)-3-hydroxy-2-phenylpropan-1-one] |
| 300 to 1000 nM | NC(C(=O)N1CC(=C2CN(S(=O)(=O)c3ccc(OC(F)F)cc3)C2)C1)c1cccc(C(F)(F)F)c1 (stereo not drawn) [Compound 23, 2-amino-1-(1′-((4-(difluoromethoxy)phenyl)sulfonyl)-1′,4′-dihydro-2H,2′H-[3,3′-diazetidinylidene]-1(4H)-yl)-2-(3-(trifluoromethyl)phenyl)ethan-1-one] |
| < 100 nM | O=C(C(O)c1ccc2c(c1)NCCO2)N1CC(=C2CN(S(=O)(=O)c3ccc(OC(F)F)cc3)C2)C1 (stereo not drawn) [Compound 13, 1-(1′-((4-(difluoromethoxy)phenyl)sulfonyl)-1′,4′-dihydro-2H,2′H-[3,3′-diazetidinylidene]-1(4H)-yl)-2-(3,4-dihydro-2H-benzo[b][1,4]oxazin-6-yl)-2-hydroxyethan-1-one] |
| 300 to 1000 nM | CN1C(=O)COc2ccc(S(=O)(=O)N3CC(=C4CN(C(=O)[C@H](CO)c5ccccc5)C4)C3)cc21 [Compound 41, (S)-6-((1′-(3-hydroxy-2-phenylpropionyl)-1′,4′-dihydro-2H,2′H-[3,3′-diazetidinylidene]-1(4H)-yl)sulfonyl)-4-methyl-2H-benzo[b][1,4]oxazine-3(4H)-one] |
| 300 to 1000 nM | O=C([C@@H](CO)c1ccc(F)cc1)N1CC(=C2CN(S(=O)(=O)c3ccc4c(c3)OCCO4)C2)C1 [Compound 31, (R)-1-(1′-((2,3-dihydrobenzo[b][1,4]dioxin-6-yl)sulfonyl)-1′,4′-dihydro-2H,2′H-[3,3′-diazetidinylidene]-1(4H)-yl)-2-(4-fluorophenyl)-3-hydroxypropan-1-one] |
| < 100 nM | COc1ccc(C(CO)C(=O)N2CC(=C3CN(S(=O)(=O)c4ccc5ncsc5c4)C3)C2)cc1 (stereo not drawn) [Compound 44, 1-(1′-(benzo[d]thiazol-6-ylsulfonyl)-1′,4′-dihydro-2H,2′H-[3,3′-diazetidinylidene]-1(4H)-yl)-3-hydroxy-2-(4-methoxyphenyl)propan-1-one] |
